Assay [1] concerns Bacillus subtilis (KCTC 1918). The note with it: broth microdilution, 1% bactopeptone, 5×10^3 CFU/ml, 10 h at 37°C, OD 620 nm, triplicate. (In general: In broth dilution the organism is exposed to a series of concentrations in liquid medium.)
Assay [2] concerns Staphylococcus epidermidis (KCTC 1917). The note with it: broth microdilution, 1% bactopeptone, 5×10^3 CFU/ml, 10 h at 37°C, OD 620 nm, triplicate.
Assay [3] deals with Proteus vulgaris (KCTC 2433). The note with it: broth microdilution, 1% bactopeptone, 5×10^3 CFU/ml, 10 h at 37°C, OD 620 nm, triplicate.
Assay [4] deals with Trichosporon beigelii (KCTC 7707). Put plainly: Antifungal MTT assay MIC. The note with it: YPD pH 5.5, 24 h at 28°C, absorbance 570 nm, triplicate. The format is cell-based. For orientation: Formazan colour is commonly taken as a measure of viable cells.
Assay [5] deals with Saccharomyces cerevisiae (KCTC 7296). Particulars: MTT assay, YPD pH 5.5, 24 h at 28°C, absorbance 570 nm, triplicate.
The subject of assay [6] is Pseudomonas aeruginosa (KCTC 1637). Particulars: broth microdilution, 1% bactopeptone, 5×10^3 CFU/ml, 10 h at 37°C, OD 620 nm, triplicate.
Assay [7] relates to Salmonella typhimurium (KCTC 1926). Particulars: broth microdilution, 1% bactopeptone, 5×10^3 CFU/ml, 10 h at 37°C, OD 620 nm, triplicate.
The test system of assay [8] is Escherichia coli (KCTC 1682). Particulars: broth microdilution, 1% bactopeptone, 5×10^3 CFU/ml, 10 h at 37°C, OD 620 nm, triplicate.
The next assay relates to S. aureus (KCTC 1621). The note with it: broth microdilution, 1% bactopeptone, 5×10^3 CFU/ml, 10 h at 37°C, OD 620 nm, triplicate.
Assay [9] relates to Candida albicans (KCTC 7270). Particulars: MTT assay, YPD pH 5.5, 24 h at 28°C, absorbance 570 nm, triplicate.
The test system of another assay is C. albicans cells. Put plainly: Flow cytometric analysis of cell membrane permeability (PI uptake). The format is cell-based, Candida albicans. The note with it: 30 min on ice, 12.5 µM Anal 3 or melittin, peptides at MIC. How it is done: Membrane integrity following peptide treatment was evaluated using flow cytometry. Anal 3, Anal 3-Pro or melittin (control) was added to C. albicans cells (2×10^5 cells in YPD media) to the MIC, after which cell membrane permeabilization was detected by incubating the treated cells in 50 µg/ml propidium iodide (PI) for 30 min at 4°C. After removing the unbound dye by extensively washing with PBS, the cells were subjected to flow cytometric analysis using a FACScalibur flow cytometer (Becton Dickinson, San Jose, CA). PI fluorescence was monitored in the FL2-H channel.
(In general: Flow cytometry measures light scatter and fluorescence of single cells or particles in a stream.)

This note sets out measurements from publication PMC3720801, “A Proline-Hinge Alters the Characteristics of the Amphipathic α-helical AMPs” (PLoS ONE, 2013).

Converted amounts (≈) assume the structure as drawn. Peptide text beside a SMILES is read from it.

Consider `CC[C@H](C)[C@H](NC(=O)[C@H](CCCCN)NC(=O)[C@H](CO)NC(=O)[C@H](Cc1ccccc1)NC(=O)[C@H](CC(C)C)NC(=O)[C@H](CCCCN)NC(=O)[C@H](CCC(=O)O)NC(=O)[C@H](CC(C)C)NC(=O)[C@H](CCCNC(=N)N)NC(=O)[C@H](CCCCN)NC(=O)[C@H](Cc1ccccc1)NC(=O)[C@@H](NC(=O)[C@H](CCCCN)NC(=O)[C@H](CCCCN)NC(=O)[C@H](C)N)C(C)C)C(=O)N[C@@H](CCC(N)=O)C(=O)N[C@@H](CC(N)=O)C(=O)N[C@@H](Cc1c[nH]c2ccccc12)C(=O)N[C@@H](CCCCN)C(N)=O` [Anal 1] (H-AKKVFKRLEKLFSKIQNWK-NH2), for which the “MIC G(+) BS” value in assay [1] is given as 1.56 µM (≈ 3.73 µg/mL). In addition, the “MIC G(+) SE” value in assay [2] came to 0.78 µM (≈ 1.86 µg/mL). Besides, in assay [3], the “MIC G(−) PV” value stood at 1.56 µM (≈ 3.73 µg/mL). In [4], the “MIC Yeast TB” value is recorded as 6.25 µM (≈ 14.9 µg/mL). Moreover, in assay [5], the “MIC Yeast SC” value worked out at 12.5 µM (≈ 29.9 µg/mL). In assay [6], the “MIC G(−) PA” value is 6.25 µM (≈ 14.9 µg/mL). For the same compound, the “MIC G(−) ST” value in [7] was 0.39 µM (≈ 0.932 µg/mL). Also, the “MIC G(−) EC” value in assay [8] is 1.56 µM (≈ 3.73 µg/mL). Further, in the assay with S. aureus (KCTC 1621), the “MIC G(+) SA” value is recorded as 3.13 µM (≈ 7.48 µg/mL). Moreover, the “MIC Yeast CA” value in [9] is reported as 12.5 µM (≈ 29.9 µg/mL).
For the compound `CC[C@H](C)[C@H](NC(=O)[C@H](CCCCN)NC(=O)[C@H](CO)NC(=O)[C@H](Cc1ccccc1)NC(=O)[C@H](CC(C)C)NC(=O)[C@H](CCCCN)NC(=O)[C@H](CCC(=O)O)NC(=O)[C@H](CC(C)C)NC(=O)[C@H](CCCNC(=N)N)NC(=O)[C@H](CCCCN)NC(=O)[C@H](Cc1ccccc1)NC(=O)[C@@H](NC(=O)[C@H](CCCCN)NC(=O)[C@H](CCCCN)NC(=O)[C@H](C)N)C(C)C)C(=O)N[C@@H](Cc1c[nH]c2ccccc12)C(=O)N[C@@H](CC(N)=O)C(=O)N[C@@H](CC(=O)O)C(=O)N[C@@H](CCCCN)C(N)=O` [Anal 2] (H-AKKVFKRLEKLFSKIWNDK-NH2), the “MIC G(+) BS” value in assay [1] is on record as 1.56 µM (≈ 3.71 µg/mL). The “MIC G(+) SE” value in assay [2] is 1.56 µM (≈ 3.71 µg/mL). Moreover, in [3], the “MIC G(−) PV” value is listed as 1.56 µM (≈ 3.71 µg/mL). The “MIC Yeast TB” value in assay [4] lay in the range of 6.25 to 12.5 µM. In [5], the “MIC Yeast SC” value is 12.5 µM (≈ 29.7 µg/mL). In addition, in [6], the “MIC G(−) PA” value was found to be 6.25 µM (≈ 14.9 µg/mL). Moreover, the “MIC G(−) ST” value in [7] came to 0.78 µM (≈ 1.85 µg/mL). The “MIC G(−) EC” value in [8] is recorded as 1.56 µM (≈ 3.71 µg/mL). In addition, in the assay on S. aureus (KCTC 1621), the “MIC G(+) SA” value was 3.13 µM (≈ 7.44 µg/mL). Further, in [9], the “MIC Yeast CA” value is on record as 12.5 µM (≈ 29.7 µg/mL).
As for `CC[C@H](C)[C@H](NC(=O)[C@H](CCCCN)NC(=O)[C@H](CO)NC(=O)[C@H](Cc1ccccc1)NC(=O)[C@H](CC(C)C)NC(=O)[C@H](CCCCN)NC(=O)[C@H](CCC(=O)O)NC(=O)[C@H](CC(C)C)NC(=O)[C@H](CCCNC(=N)N)NC(=O)[C@H](CCCCN)NC(=O)[C@H](Cc1ccccc1)NC(=O)[C@@H](NC(=O)[C@H](CCCCN)NC(=O)[C@H](CCCCN)NC(=O)[C@H](C)N)C(C)C)C(=O)N[C@@H](Cc1c[nH]c2ccccc12)C(=O)N[C@@H](CC(N)=O)C(=O)N[C@@H](Cc1c[nH]c2ccccc12)C(=O)N[C@@H](CCCCN)C(N)=O` [Anal 3] (H-AKKVFKRLEKLFSKIWNWK-NH2), in assay [1], the “MIC G(+) BS” value was 0.78 µM (≈ 1.91 µg/mL). Besides, the “MIC G(+) SE” value in assay [2] is given as 0.78 µM (≈ 1.91 µg/mL). In addition, the “MIC G(−) PV” value in assay [3] came out at 1.56 µM (≈ 3.82 µg/mL). The “MIC Yeast TB” value in assay [4] is reported as 3.13 µM (≈ 7.67 µg/mL). Moreover, the “MIC Yeast SC” value in assay [5] fell in the range of 3.13 to 6.25 µM. For the same compound, the “MIC G(−) PA” value in assay [6] was determined as 3.13 µM (≈ 7.67 µg/mL). For the same compound, in [7], the “MIC G(−) ST” value is recorded as 0.39 µM (≈ 0.955 µg/mL). The “MIC G(−) EC” value in assay [8] was 0.78 µM (≈ 1.91 µg/mL). The “MIC G(+) SA” value in the assay with S. aureus (KCTC 1621) worked out at 1.56 µM (≈ 3.82 µg/mL). Also, the “MIC Yeast CA” value in assay [9] is reported as 6.25 µM (≈ 15.3 µg/mL).
Consider `CC[C@H](C)[C@H](NC(=O)[C@H](CCCCN)NC(=O)[C@H](CO)NC(=O)[C@H](Cc1ccccc1)NC(=O)[C@H](CO)NC(=O)[C@H](CCCCN)NC(=O)[C@H](CCC(=O)O)NC(=O)[C@H](CC(C)C)NC(=O)[C@H](CCCNC(=N)N)NC(=O)[C@H](CCCCN)NC(=O)[C@H](Cc1ccccc1)NC(=O)[C@@H](NC(=O)[C@H](CCCCN)NC(=O)[C@H](CCCCN)NC(=O)[C@H](C)N)C(C)C)C(=O)N[C@@H](CCC(N)=O)C(=O)N[C@@H](CC(N)=O)C(=O)N[C@@H](CC(=O)O)C(=O)N[C@@H](CCCCN)C(N)=O` [Anal 4] (H-AKKVFKRLEKSFSKIQNDK-NH2), for which, in assay [1], the “MIC G(+) BS” value is listed as 6.25 µM (≈ 14.3 µg/mL). For the same compound, the “MIC G(+) SE” value in assay [2] is on record as 12.5 µM (≈ 28.7 µg/mL). Besides, the “MIC G(−) PV” value in [3] is reported as 6.25 µM (≈ 14.3 µg/mL). Also, the “MIC Yeast TB” value in [4] was 50 µM (≈ 115 µg/mL). Also, the “MIC Yeast SC” value in assay [5] is 50 µM (≈ 115 µg/mL). Also, the “MIC G(−) PA” value in [6] was above 12.5 µM. In addition, the “MIC G(−) ST” value in [7] came out at 1.56 µM (≈ 3.58 µg/mL). In addition, in [8], the “MIC G(−) EC” value turned out to be 12.5 µM (≈ 28.7 µg/mL). Besides, the “MIC G(+) SA” value in the assay on S. aureus (KCTC 1621) was above 12.5 µM. Also, the “MIC Yeast CA” value in assay [9] fell in the range of 50 to 100 µM.
For `CC[C@H](C)[C@H](NC(=O)[C@H](CCCCN)NC(=O)[C@H](CO)NC(=O)[C@H](Cc1ccccc1)NC(=O)[C@H](CC(C)C)NC(=O)[C@H](CCCCN)NC(=O)[C@H](CCC(=O)O)NC(=O)[C@H](CC(C)C)NC(=O)[C@H](CCCNC(=N)N)NC(=O)[C@H](CCCCN)NC(=O)[C@H](CO)NC(=O)[C@@H](NC(=O)[C@H](CCCCN)NC(=O)[C@H](CCCCN)NC(=O)[C@H](C)N)C(C)C)C(=O)N[C@@H](CCC(N)=O)C(=O)N[C@@H](CC(N)=O)C(=O)N[C@@H](CC(=O)O)C(=O)N[C@@H](CCCCN)C(N)=O` [Anal 5] (H-AKKVSKRLEKLFSKIQNDK-NH2), the “MIC G(+) BS” value in assay [1] worked out at 3.13 µM (≈ 7.07 µg/mL). Further, the “MIC G(+) SE” value in assay [2] is 6.25 µM (≈ 14.1 µg/mL). Moreover, the “MIC G(−) PV” value in assay [3] came to 3.13 µM (≈ 7.07 µg/mL). Moreover, the “MIC Yeast TB” value in [4] is listed as 50 µM (≈ 113 µg/mL). Besides, the “MIC Yeast SC” value in assay [5] is 50 to 100 µM. For the same compound, in assay [6], the “MIC G(−) PA” value is given as above 12.5 µM. The “MIC G(−) ST” value in [7] stood at 3.13 µM (≈ 7.07 µg/mL). Besides, the “MIC G(−) EC” value in assay [8] is 6.25 µM (≈ 14.1 µg/mL). The “MIC G(+) SA” value in the assay with S. aureus (KCTC 1621) was above 12.5 µM. Also, in assay [9], the “MIC Yeast CA” value is on record as 100 µM (≈ 226 µg/mL).
As for `CC[C@H](C)[C@H](NC(=O)[C@H](CCCCN)NC(=O)[C@H](CO)NC(=O)[C@H](Cc1ccccc1)NC(=O)[C@H](CC(C)C)NC(=O)[C@H](CCCCN)NC(=O)[C@H](CCC(=O)O)NC(=O)[C@H](CC(C)C)NC(=O)[C@H](CCCNC(=N)N)NC(=O)[C@H](CCCCN)NC(=O)[C@H](Cc1ccccc1)NC(=O)[C@@H](NC(=O)[C@H](CCCCN)NC(=O)[C@H](CCCCN)NC(=O)[C@H](C)N)C(C)C)C(=O)N[C@@H](CCC(N)=O)C(=O)N[C@@H](CC(N)=O)C(=O)N[C@@H](CC(=O)O)C(=O)N[C@@H](CCCCN)C(N)=O` [HP (2–20), reference compound] (H-AKKVFKRLEKLFSKIQNDK-NH2), the “MIC G(+) BS” value in [1] is 1.56 µM (≈ 3.62 µg/mL). Further, the “MIC G(+) SE” value in assay [2] stood at 3.13 µM (≈ 7.26 µg/mL). The “MIC G(−) PV” value in assay [3] worked out at 3.13 µM (≈ 7.26 µg/mL). The “MIC Yeast TB” value in assay [4] lay in the range of 12.5 to 25 µM. The “MIC Yeast SC” value in assay [5] is 25 µM (≈ 58 µg/mL). Besides, the “MIC G(−) PA” value in assay [6] is given as 12.5 µM (≈ 29 µg/mL). Moreover, the “MIC G(−) ST” value in assay [7] turned out to be 0.78 µM (≈ 1.81 µg/mL). The “MIC G(−) EC” value in assay [8] came out at 6.25 µM (≈ 14.5 µg/mL). The “MIC G(+) SA” value with S. aureus (KCTC 1621) amounted to 12.5 µM (≈ 29 µg/mL). Besides, the “MIC Yeast CA” value in assay [9] was 25 µM (≈ 58 µg/mL).
Consider “melittin: antimicrobial peptide known to target the cell membrane”, for which the “PI influx (membrane permeabilization), in words” value with C. albicans cells is listed as “large influx of PI”.
